In publication PMC12866179, “Oxidized MIF is an Alzheimer’s disease drug target relaying external risk factors to tau pathology” (Cell Reports Medicine, 2025):

Key:
[1] = MTT assay, SH-SY5Y-tau-P301S cells; type: cell-based; conditions: human, Figure S1B
Description: For viability analysis 4x10^4 Vero or 8x10^4 SH-SY5Y-tau-P301S cells were plated in a 96-well plate and incubated at 37°C overnight. Then the compounds diluted in DMSO were added to the cells. The final concentration of DMSO was 1%. The cells were then incubated for 24h (Vero) or 48h (SH-SY5Y). Afterward 20 μL of a Thiazolyl Blue Tetrazolium Bromide (MTT, Sigma) solution (5 mg/mL in PBS) was added to the cells and incubated for 4h allowing viable cells to reduce the yellow MTT into blue formazan metabolites. Following aspiration of the medium, the formazan was resuspended in 200 μL isopropanol/40 mM HCl and incubated for 30 min at RT. The diluted formazan was spectrometrically analyzed using a Tecan Safire Spectrometer at 560 nm and background at 670 nm was subtracted.

[2] = system: GSK3β; test: GSK3β phosphorylation (Ser9) in SH-SY5Y-tau-P301S cells, immunoblot; type: cell-based, human; conditions: dose-dependent and MIF-dependent
Description: After the protein concentration of cell lysates and homogenates had been determined using the DC Protein Assay Kit (Bio-Rad), 20 μg of each sample were dissolved in NuPAGE LDS Sample buffer (including 2% β-mercaptoethanol), boiled at 100°C for 5 min and then separated on NuPAGE Novex 4–12% Bis-Tris midi gels (Invitrogen) using NuPAGE MES SDS Running buffer (Invitrogen). Proteins were then transferred to a 0.2 μm nitrocellulose membrane (Amersham) in 24 mM Tris/192 mM glycine/20% MeOH at 400 mA for 2h using a tank blot system (Bio-Rad). In order to detect any blotting artifacts, the proteins on the membranes were visualized with Ponceau S (Sigma). The membranes were destained with PBS and then blocked with PBS/5% nonfat milk (Oxoid) for 1h at RT. Incubations with primary antibodies (diluted 1:1,000) in PBS-T were carried out overnight at 4°C. Then the membranes were washed three times with PBS-T for 10 min and afterward incubated with fluorescent secondary antibodies (IR Dye 680 or 800: Li-COR Biosciences.) diluted 1:20,000 in PBS-T for 1h at RT. Following three washing steps with PBS-T for 10 min each, the membranes were scanned using an LI-COR Odyssey CLX. Signal intensities were calculated using the Image Studio Version 2.1 software (LI-COR Biosciences). Blots were reused for staining with additional primary antibodies following the same procedure.

[3] = biological target: T1, oxMIF (Homo sapiens, UniProt P14174); test: 15N-HSQC NMR binding to H2O2-treated wild-type MIF (oxMIF)
T1 construct: made in house; host or cells: E. coli BL21-(DE3)-Rosetta-pLysS, pET11a-MIF, then H2O2 treatment
T1 sequence (P14174 2-115 limits assumed): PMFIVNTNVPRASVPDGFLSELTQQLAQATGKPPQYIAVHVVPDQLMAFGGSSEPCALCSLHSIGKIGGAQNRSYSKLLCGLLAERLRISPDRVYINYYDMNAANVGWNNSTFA
Description: The NMR F1-[^13C,^15N]-filtered-[^1H,^1H]-NOESY spectra for structure calculation were recorded on a 700 MHz Bruker Avance Neo spectrometer equipped with cryoprobe, and the ^15N-HSQC were recorded on a 600 MHz Bruker Avance III spectrometer equipped with cryoprobe. The filtered NOESY were recorded for MIF 1.0 mM and saturation of PAV-174, i.e., 1.0 mM of PAV-174. at 310K to reduce the rotational correlation time of the system, with two different mixing times 60 and 100ms; the free induction decay was measured for 106ms (2048 points) and the indirect dimension was set to 20ms (400 points); the signal acquisition was performed with 160 scans and the interscan delay was set to 1.5s. The ^15N-HSQC were measured at 298K with 121ms (2048 points) in the direct dimension and 53 ms (256 points) in the indirect dimension; the signal acquisition was performed through the accumulation of 16 scans and an interscan delay of 1s was applied. The cross-peaks corresponding to ligand-proteins were used to derive ligand-protein distant restraints using the initial rates of the normalized NOE intensity build-up curves.[91] […] The intermolecular distance restraints were kept semiambiguous, i.e., only the ligand signals were assigned, and the MIF- PAV-174 complex was calculated with the NMR^2 software[92] using the CYANA software for tortion angle dynamics structure calculation.

SMILES: CCc1cc(N2CCCC2)cc2[s+]c3cc(N4CCCC4)cc(C)c3nc12.[I-] [PAV-174, 3,7-Di(pyrrolidine-1-yl) 1-ethyl-9-methyl-phenothiazin-5-ium iodide]
- CC50 at 48 h [1]: 1480 nM
- phosphorylation of GSK3β at Ser9 [2]: increased
- binding to redMIF and oxMIF (chemical shift perturbations) [3]: bound to both MIF species
